Where a name gives a salt, the structure may show the parent alone. Read-outs that look alike come from different tables or passages of the source.
What was measured:
SKM-1 cells = experiment: Example 6 combination screen: 300 nM EPZ-5676 pre-treatment, second compound 72 h, ATPLite, IC50 shift; assay type: cell-based, human
Experimental: Cells were then equilibrated in incubators for 24 hours before treatment with a second compound. Treated assay plates were incubated with a second compound for 72 hours. After this time, plates were developed for endpoint analysis using ATPLite to measure ATP content, which is used as an indicator of cell viability.
“N/D” means that IC50 of the second compound could not be determined for both conditions.

MOLM-13 (MLL-AF9) cells = experiment: Combination proliferation assay with Compound A2 (CellTiter-Glo, Chou-Talalay CI); assay type: cell-based, human; settings: 7 Day Cotreatment Model; for Combination effect with Compound A2 (Table 4): MOLM-13 (MLL-AF9); for Combination effect with Compound A2 (Table 5): MOLM13
Experimental: The acute myelogenous leukemia cell lines MV4-11 (MLL-AF4) and MOLM-13 (MLL-AF9) were obtained from American Type Culture Collection (ATCC; Rockville, Md.) and Deutsche Sammlung von Mikroorganismen and Zellkulturen (DSMZ; Braunschweig, Germany) respectively.
Studies were performed using MLL-rearranged cell lines in vitro to evaluate the anti-proliferative effect of a combination of two agents together on cell growth. Initial proliferation studies were performed to determine the IC50 of a given compound in each cell line. The cell counts were measured by ATP quantitation using the Promega Cell Titer Glo kit and luminescence values corresponded to the amount of ATP in a given well.
Compounds were evaluated for synergy in the co-treatment phase by testing the compounds in a concentration range which was bracketed around their IC50 values. The compounds were plated to a 96 well plate in a matrix format (FIG. 3) which includes increasing concentrations of each drug in the combination in a constant ratio, in addition to the effect of each compound alone in the study. Cells were seeded and grown in the log-linear phase for 3 or 7 days in the co-treatment phase. Minimum inhibition (DMSO alone) controls were used in each plate to calculate fraction affected (Fa) of a test well. DMSO concentration was kept at 0.1% v/v.
The drug combination analysis was performed utilizing the Chou-Talalay method Synergy was determined using the software package Calcusyn by Biosoft. The combination index (CI) is a quantitative term used to describe the level of synergy or antagonism in a given test system. A combination index less than one indicates synergy, and a CI greater than one indicates antagonism. Further, strong synergism is achieved when the CI value falls below 0.3.
The HP-D300 digital dispenser (Tecan) was used to dispense compounds in a combinatorial matrix. […] Cell viability was measured via ATP content using CellTiter-Glo® (Promega).
Viability was determined using CellTiter-Glo® (Promega).
Cell viability was measured via ATP content using CellTiter-Glo® (Promega).
Proliferation studies were performed using MOLM-13, MV4-11 and SKM-1 cell lines in vitro to evaluate the cancer cell killing effect of a combination of two agents together on cell growth. Initial proliferation studies were performed to determine the IC50 values of a given compound in each cell line. The cell counts were measured by ATP quantitation using the Promega Cell Titer Glo kit and luminescence values correspond to the amount of ATP in a given well.
These studies were performed to evaluate both the combinatorial effect of compounds on cell killing and the durability of the effect by washing out one of the agents.
Compounds evaluated for synergy in the co-treatment phase were tested in a range which was bracketed around the IC50's. The compounds were plated to a 96 well plate in a matrix format which includes increasing concentrations of each drug in the combination in a constant ratio, in addition to the effect of each compound alone in the study. Cells were seeded and grown in the log-linear phase for 3 or 7 days in the cotreatment phase. Maximum and minimum inhibition (DMSO alone) controls were used in each plate to calculate fraction affected (Fa) of a test well. DMSO concentration was kept at 0.1% v/v. The drug combination analysis was performed utilizing the Chou-Talalay method. Synergy was determined using the software package Calcusyn by Biosoft. The combination index (CI) is the term used to describe the level of synergy or antagonism in a given test system. A combination index less than one indicates synergy, and a CI greater than one indicates antagonism.
The drug combination analysis was performed using the Chou-Talalay method. Graphs representing values of combination index (CI) versus Fractional effect (Fa) known as Fa-CI plots were generated and synergy was evaluated.

[1] = SKM-1 cells, 300 nM EPZ-5676 pre-treatment (4 + 3 days) vs DMSO, then 2nd compound 72 h, ATPLite, IC50 shift of 2nd compound

| Compound | Summary of Combination Studies: SKM-1 (SKM-1 cells; [1]) | further results |
| --- | --- | --- |
| CS(=O)(=O)N1CCN(Cc2cc3nc(-c4cccc5[nH]ncc45)nc(N4CCOCC4)c3s2)CC1 [GDC-0941] | Synergy (considered synergistic if the IC50 value of the second compound decreased by 2-fold or more when EPZ-5676 was added as compared to the DMSO control) | – |
| CC1(C)CCC(CN2CCN(c3ccc(C(=O)NS(=O)(=O)c4ccc(NCC5CCOCC5)c([N+](=O)[O-])c4)c(Oc4cnc5[nH]ccc5c4)c3)CC2)=C(c2ccc(Cl)cc2)C1 [ABT-199] | – | Combination effect with Compound A2 (Table 4) (MOLM-13 (MLL-AF9) cells): Additive--> Synergy |
| S=c1nc[nH]c2nc[nH]c12 [Mercaptopurine] | – | Combination effect with Compound A2 (Table 4) (MOLM-13 (MLL-AF9) cells): Additive--> Synergy |
| COc1ccc(-c2ccc3c(N4CCOC[C@@H]4C)nc(N4CCOC[C@@H]4C)nc3n2)cc1CO [AZD 8055] | Synergy (considered synergistic if the IC50 value of the second compound decreased by 2-fold or more when EPZ-5676 was added as compared to the DMSO control) | – |
| COCc1c(C(C)C)nc(C(C)C)c(/C=C/[C@@H](O)C[C@@H](O)CC(=O)O)c1-c1ccc(F)cc1 [Cerivastatin Sodium] | Synergy (considered synergistic if the IC50 value of the second compound decreased by 2-fold or more when EPZ-5676 was added as compared to the DMSO control) | – |
| CN(C)C(=O)c1cc2cnc(Nc3ccc(N4CCNCC4)cn3)nc2n1C1CCCC1 [LEE011] | Synergy (considered synergistic if the IC50 value of the second compound decreased by 2-fold or more when EPZ-5676 was added as compared to the DMSO control) | – |
| CCN(CC)CCNC(=O)c1c(C)[nH]c(/C=C2\C(=O)Nc3ccc(F)cc32)c1C [Sunitinib Malate] | 2.0 | – |
| O=C(Nc1ccncc1)c1cc([N+](=O)[O-])ccc1Cl [Compound T0070907] | – | Combination effect with Compound A2 (Table 5) (MOLM-13 (MLL-AF9) cells): Additive (additive effect by CI equal to 1) |
| C[C@@H]1COCCN1c1cc(C2(S(C)(=O)=O)CC2)nc(-c2cccc3[nH]ccc23)n1 [AZ20] | – | Combination effect with Compound A2 (Table 5) (MOLM-13 (MLL-AF9) cells): Synergy (Drug synergy was statistically defined by CI values less than 1) |
| C#Cc1cccc(Nc2ncnc3cc(OCCOC)c(OCCOC)cc23)c1 [Erlotinib Hydrochloride] | Synergy (considered synergistic if the IC50 value of the second compound decreased by 2-fold or more when EPZ-5676 was added as compared to the DMSO control) | – |
| Cc1sc2c(c1C)C(c1ccc(Cl)cc1)=N[C@@H](CC(=O)Nc1ccc(O)cc1)c1nnc(C)n1-2 [OTX015] | Synergy (considered synergistic if the IC50 value of the second compound decreased by 2-fold or more when EPZ-5676 was added as compared to the DMSO control) | – |
| Arsenic Trioxide | – | Summary of Combination Studies: SKM-1 (SKM-1 cells): 2.0 |
| CC(C)CC(=O)Nc1[nH]nc2c1CN(C(=O)C1CCN(C)CC1)C2(C)C [PHA-793887] | Synergy (considered synergistic if the IC50 value of the second compound decreased by 2-fold or more when EPZ-5676 was added as compared to the DMSO control) | – |
| COc1ccc(Cc2nccc3cc(OC)c(OC)cc23)cc1OC [Papaverine Hydrochloride] | Synergy (considered synergistic if the IC50 value of the second compound decreased by 2-fold or more when EPZ-5676 was added as compared to the DMSO control) | – |
| CC(C)C[C@H](NC(=O)[C@H](Cc1ccccc1)NC(=O)c1cnccn1)B(O)O [Velcade, bortezomib] | – | Combination effect with Compound A2 (Table 4) (MOLM-13 (MLL-AF9) cells): Combination Benefit |
| COc1ccc(CCc2nc3cc(-c4c(C)noc4C)ccc3n2C[C@H](C)N2CCOCC2)cc1Cl [SGC-CBP30] | Synergy (considered synergistic if the IC50 value of the second compound decreased by 2-fold or more when EPZ-5676 was added as compared to the DMSO control) | – |
| Cn1c(=O)n(-c2ccc(C(C)(C)C#N)cc2)c2c3cc(-c4cnc5ccccc5c4)ccc3ncc21 [BEZ235] | – | Combination effect with Compound A2 (Table 5) (MOLM-13 (MLL-AF9) cells): Additive (additive effect by CI equal to 1) |
| CC(C)C[C@H](NC(=O)CNC(=O)c1cc(Cl)ccc1Cl)B(O)O [MLN2238] | Synergy (considered synergistic if the IC50 value of the second compound decreased by 2-fold or more when EPZ-5676 was added as compared to the DMSO control) | – |
| C[C@H]1C[C@@H]2[C@H]([C@@H](O)C[C@@]3(C)[C@H]2CC[C@]3(O)C(=O)CO)[C@@]2(C)C=CC(=O)C=C12 [Methylprednisolone] | Synergy (considered synergistic if the IC50 value of the second compound decreased by 2-fold or more when EPZ-5676 was added as compared to the DMSO control) | – |
| CN(C)CC[C@H](CSc1ccccc1)Nc1ccc(S(=O)(=O)NC(=O)c2ccc(N3CCN(Cc4ccccc4-c4ccc(Cl)cc4)CC3)cc2)cc1[N+](=O)[O-] [ABT-737] | Synergy (considered synergistic if the IC50 value of the second compound decreased by 2-fold or more when EPZ-5676 was added as compared to the DMSO control) | – |
| NC1(c2ccc(-c3nc4ccn5c(=O)[nH]nc5c4cc3-c3ccccc3)cc2)CCC1 [MK2206] | Synergy (considered synergistic if the IC50 value of the second compound decreased by 2-fold or more when EPZ-5676 was added as compared to the DMSO control) | Combination effect with Compound A2 (Table 5) (MOLM-13 (MLL-AF9) cells): Additive (additive effect by CI equal to 1) |
| C=C[C@@]1(C)CC(=O)[C@]2(O)[C@@]3(C)[C@@H](O)CCC(C)(C)[C@@H]3[C@H](OC(=O)CCN(C)C)[C@H](OC(C)=O)[C@@]2(C)O1.Cl [NKH 477] | Synergy (considered synergistic if the IC50 value of the second compound decreased by 2-fold or more when EPZ-5676 was added as compared to the DMSO control) | – |
| CC1=C(/C=C/C(C)=C/C=C/C(C)=C/C(=O)O)C(C)(C)CCC1 [Tretinoin] | Synergy (considered synergistic if the IC50 value of the second compound decreased by 2-fold or more when EPZ-5676 was added as compared to the DMSO control) | – |
| O=C(CCCCCCC(=O)Nc1ccccc1)NO [Vorinostat] | – | Combination effect with Compound A2 (Table 4) (MOLM-13 (MLL-AF9) cells): Additive/Synergy |
| N#Cc1c(C2CCNCC2)cc(-c2c(O)cccc2OCC2CC2)nc1N [IKK-2 Inhibitor VIII] | Synergy (considered synergistic if the IC50 value of the second compound decreased by 2-fold or more when EPZ-5676 was added as compared to the DMSO control) | – |
| Nc1cccc2c1CN(C1CCC(=O)NC1=O)C2=O (centres unmarked) [Lenalidomide] | – | Combination effect with Compound A2 (Table 4) (MOLM-13 (MLL-AF9) cells): Combination Benefit |
| C=C(c1ccc(C(=O)O)cc1)c1cc2c(cc1C)C(C)(C)CCC2(C)C [Bexarotene] | Synergy (considered synergistic if the IC50 value of the second compound decreased by 2-fold or more when EPZ-5676 was added as compared to the DMSO control) | – |
| O=C(Nc1cccc(Nc2ncc(Br)c(NCCc3cnc[nH]3)n2)c1)N1CCCC1 [BX-912] | Synergy (considered synergistic if the IC50 value of the second compound decreased by 2-fold or more when EPZ-5676 was added as compared to the DMSO control) | – |

Source: US20190083521A1, “COMBINATION THERAPY FOR TREATING CANCER” (Epizyme, Inc., priority 2014, published 2019)
